Here are results for one compound from patent US12637718B2, “Predictive biomarkers for onvansertib treatment” (Cardiff Oncology, Inc., priority 2021, dated 2026).

The test system of data set [1] is xenograft tumor. Conditions: well tolerated doses, oral administration; cited from earlier work.
For data set [2] the following is noted: rodent and nonrodent species; cited from earlier work.
In data set [3] the test system is cell lines, both from solid as well as hematologic tumors. The settings on record: large number of cell lines; cited from earlier work.
Data set [4] has as its system cancer cell lines. Conditions: cited from earlier work.
Data set [5] has as its system HT29 human colon adenocarcinoma xenografts. Conditions: combination with irinotecan compared to each agent alone; cited from earlier work.
The subject of data set [6] is disseminated model of AML. The settings on record: combination therapy with cytarabine; cited from earlier work.
For data set [7], the system named is adult subjects with advanced/metastatic solid tumors. The settings on record: cited from earlier work.
For data set [8] the following is noted: in vivo; cited from earlier work.
Data set [9] relates to patients with relapsed or refractory acute myeloid leukemia (R/R AML). The experiment in a line: Phase 1b/2 study (NCT03303339) of onvansertib in combination with decitabine. Type of data set: in vivo. The settings on record: oral, days 1 through 5, in combination with decitabine 20 mg/m^2 intravenously. From the text:
The terms “complete remission” or “complete recovery” as used herein can refer to the absence of extramedullary disease (e.g., leukemic cell aggregates outside of bone marrow), <5% blasts in the bone marrow, absence of circulating blasts and blasts with Auer rods (e.g., inclusion bodies), and platelets≥100×10^9/L and neutrophils≥1.0×10^9/L. The term “complete remission with incomplete hematologic recovery” can refer to all CR criteria except for residual neutropenia (neutrophils<1.0×10^9/L) or thrombocytopenia (platelets<100×10^9/L). The term “morphologic leukemia free state” (MFLS) can refer to <5% blasts in the bone marrow with no blasts with Auer rods and no extramedullary disease. The terms “partial response” or “partial remission” can refer to the presence of all hematologic criteria of CR, decrease of bone marrow blast percentage to 5% to 25%, and/or decrease of pretreatment bone marrow blast percentage by at least 50%. The term “Bone marrow response” (BMR) can refer to at least 50% decrease in bone marrow blast from baseline. In some embodiments, the term “overall response rate” (ORR) can refer to the combined CR, CRi, MFLS, and PR. In some embodiments a combined CR/CRi value is reported. […]

Data set [10] deals with PLK1 (Homo sapiens, UniProt P53350). Conditions: among a panel of 296 kinases, including other PLK members; cited from earlier work.

Each structure is given as a SMILES string.

Sequence of PLK1 (P53350 whole entry): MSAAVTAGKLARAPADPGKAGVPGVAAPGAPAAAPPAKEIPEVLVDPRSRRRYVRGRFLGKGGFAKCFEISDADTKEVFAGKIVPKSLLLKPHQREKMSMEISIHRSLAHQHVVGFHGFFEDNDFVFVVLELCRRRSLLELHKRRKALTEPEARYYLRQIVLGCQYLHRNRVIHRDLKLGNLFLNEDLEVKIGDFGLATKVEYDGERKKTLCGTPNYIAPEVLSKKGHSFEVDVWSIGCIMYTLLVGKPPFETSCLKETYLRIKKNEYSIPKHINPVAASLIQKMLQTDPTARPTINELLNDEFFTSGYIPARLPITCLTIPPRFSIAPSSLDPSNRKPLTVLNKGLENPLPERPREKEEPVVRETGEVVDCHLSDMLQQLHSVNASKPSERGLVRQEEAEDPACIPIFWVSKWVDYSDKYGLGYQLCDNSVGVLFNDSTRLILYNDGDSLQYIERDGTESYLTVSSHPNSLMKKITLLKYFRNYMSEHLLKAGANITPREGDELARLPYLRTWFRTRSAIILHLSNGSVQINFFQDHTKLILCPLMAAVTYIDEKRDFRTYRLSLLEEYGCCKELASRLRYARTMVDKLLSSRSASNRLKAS

For `CN1CCN(c2ccc(OC(F)(F)F)c(Nc3ncc4c(n3)-c3c(c(C(N)=O)nn3CCO)CC4)c2)CC1` [onvansertib, 1-(2-hydroxyethyl)-8-{[5-(4-methylpiperazin-1-yl)-2-(trifluoromethoxy)phenyl]amino}-4,5-dihydro-1H-pyrazolo[4,3-h] quinazoline-3-carboxamide], the xenograft tumor growth entry in data set [1] is “inhibits xenograft tumor growth”. Besides, the oral bioavailability result in data set [2] was “good oral bioavailability”. For the same compound, the “potency in proliferation assays” value in data set [3] is given as “low nanomolar activity”. For the same compound, the “effect on cell cycle” value in data set [4] is “potently causes a mitotic cell-cycle arrest followed by apoptosis”. Also, the tumor regression entry in [5] is listed as “enhanced tumor regression”. Moreover, the survival of animals result in data set [6] is “prolonged survival”. Also, in [7] (advanced/metastatic solid tumors), the “recommended phase 2 dose” value is on record as 24 mg/m^2. Moreover, the primary dose-limiting toxicities entry in data set [7] (in vivo) was “neutropenia and thrombocytopenia”. Also, in [7] (of 16 evaluable patients), the “patients with stable disease” value is on record as 5 patients. Moreover, the “recovery of hematologic toxicities” value in data set [7] (reversible) is on record as no more than 3 weeks. Besides, the half-life result in data set [8] was “about 24 hours”. The maximum tolerated dose in [9] was 60 mg/m^2. Besides, the “specificity for PLK1” value in [10] is recorded as “high specificity”.
